Experimental data published in patent US20220249504A1, “LONGEVITY SIGNATURES AND THEIR APPLICATIONS” (The Brigham and Women's Hospital, Inc., priority 2019, published 2022).
Entries after “also recorded” stand apart in the source; their conditions may differ.

Legend:
[1] = system: C57BL/6 mice; test: Glucose tolerance in old C57BL/6 mice on compound diet; assay type: in vivo, mouse; conditions: old C57BL/6 mice at the dose given in diet (AZD-8055: 23-month-old, treated 2.5 months)
Experimental: 23-month-old mice were treated for 2.5 months prior to analyses.

[2] = system: C57BL/6 mice; test: Frailty index of old C57BL/6 mice on compound diet; assay type: in vivo, mouse
Experimental: (§1) Briefly, 24-28 mice per intervention were used, with an approximately equal number of males and females. Mice were first assessed with regard to frailty index and gait speed, and then randomized to make sure the experimental and control groups had the same average frailty index and gait speed. Mice were then given a diet containing a compound of interest. […] Mice were monitored daily until they died. A separate cohort of old mice was assessed for frailty index and gait speed.
as §1, with “females. They” for “females. Mice”

[3] = system: mice; conditions: cited from earlier work; for Effect on lifespan in the ITP mouse cohort: at the concentrations used (Miller et al., 2011; Strong et al., 2013, 2016)
[4] = system: longevity signatures; test: GSEA-based association of publicly available hepatic gene expression datasets with longevity signatures; assay type: in vivo, mouse; conditions: for Association of hepatic gene expression changes with longevity signatures: public datasets (IL-6 injection GSE21060; SRT2104 in males GSE49000)
From the text: For interventions from publicly available sources (FIG. 7E (upper)), we downloaded them from GEO under the following accession numbers: GSE21060 (Ramadoss et al., 2010), GSE77082 (Alonso et al., 2017), GSE15891 (Baze et al., 2010), GSE11287 (Osburn et al., 2008), GSE49000 (Mercken et al., 2014), GSE10421 (Kautz et al., 2008) and GSE104234 (Rhoads et al., 2018). Data corresponding to Sirt6 overexpression (Kanfi et al., 2012) were downloaded via the link provided in the original paper. When running association test for the rhesus monkey data, we converted monkey genes to mouse orthologs using Ensembl BioMart platform. We preprocessed each dataset, performed quantile normalization and Entrez ID transformation and applied limma model for calculation of p-values, which were converted to log10(p-value) corrected by the sign of regulation as explained earlier.
To calculate statistical significance of obtained GSEA score, we performed permutation test where we randomly assigned genes to the lists of gene set maintaining their size. To get p-value of association between certain intervention and longevity signature, we calculated the frequency of real final GSEA score being bigger by absolute value than random final GSEA scores obtained as results of 3,000 permutations. To adjust for multiple comparisons, we performed Benjamini-Hochberg procedure. Resulted adjusted p-values were converted into significance scores as:
significance score=−log10(adj.pv)×sgn(GSEA score),
where adj. pv and GSEA score are BH adjusted p-value and final GSEA score, respectively. Heatmaps were colored based on values of significance scores. […]

[5] = system: mouse liver gene expression; test: Meta-analysis: Spearman correlation between hepatic gene expression profiles of interventions; assay type: in vivo; conditions: for Correlation with the main cluster of interventions (defined by CR and GH deficiency): median Spearman correlation matrix
From the text: To identify signatures associated with lifespan extension and the effect of certain interventions, we expanded our data with publicly available datasets from Gene Expression Omnibus (GEO) (Edgar, 2002) and ArrayExpress (Kolesnikov et al., 2015) databases. For the analysis of signatures associated with certain interventions (CR, rapamycin, GH deficiency), we integrated available gene expression data obtained from liver of mice from healthy genetic strains on standard diets subjected to CR, rapamycin and mutations associated with GH deficiency (Ames dwarf mice, GHRKO, Little mice, Snell dwarf mice). […] Finally, for the analysis of signatures associated with the lifespan extension effect, we integrated datasets on interventions with available and reliable survival data corresponding to the same experimental design (sex, strain, dose, age when the intervention started). In total, our hepatic meta-analysis covered 17 different interventions presented in 77 control-intervention datasets from 22 different sources (including ours) (FIG. 3D). The same approach was used to obtain microarray data corresponding to white adipose tissue (WAT) (9 control-intervention datasets from 5 sources) and skeletal muscle (13 control-intervention datasets from 9 sources).
To aggregate data across different platforms and studies, we developed the following method. First, data within each study was preprocessed independently and log-transformed to conform to normal distribution if needed. Then, filtering of low-covered genes was performed with soft threshold. Then, all identifiers were mapped to Entrez ID gene format, and genes not detected in our RNAseq data were filtered out. […] Afterwards, samples within every study were normalized by quantile normalization and scaling, followed by multiplication by the certain value to make it on the same scale as RNAseq data with more natural interpretation. Finally, mean and standard error of logFC of every gene for every response to intervention was calculated together with p-value (along with Benjamini-Hochberg adjusted p-value) estimated by edgeR (Robinson et al., 2009) and limma (Ritchie et al., 2015) for RNAseq and microarrays datasets, respectively. […] Importantly, one study may include several datasets if several interventions or settings have been analyzed there, and sometimes, different interventions or doses share the same control samples. This may be a source of batch effect, which we removed during subsequent steps of the analysis.
To calculate correlations between interventions in unbiased way, we applied the following approach. For every pair of interventions, including comparison of intervention with itself, we examined all pairs of datasets from different sources. For each such pair we selected 250 genes consisting of 125 genes with the most significant expression change (with the lowest p-values) from each dataset and calculated Spearman correlation coefficient within the pair. We reiterated this algorithm and, as a result, for every pair of interventions obtained distribution of Spearman correlation coefficients, calculated between datasets from different sources. For CR and rapamycin, we visualized these distributions using violinplot. One-sample Mann-Whitney test and Benjamini-Hochberg adjustment were used to check if means of correlation coefficients are different from 0 with statistical significance. We declared correlation coefficient to be significant if adjusted p-value was smaller than 0.1.
For correlation matrix we employed median values of Spearman correlation coefficients. By filtering out comparisons of datasets from the same source, we removed possible batch effect and ended up with independent and unbiased comparison of interventions. However, as some interventions were presented only within the same source, we couldn't estimate unbiased correlation for such cases. This missing data was visualized by grey boxes. […]

[6] = system: sex-associated genes; test: Feminizing effect of lifespan-extending interventions on hepatic gene expression (RNAseq, UM-HET3 mice); conditions: females
From the text: Liver samples corresponding to lifespan-extending interventions for RNA-seq and metabolome analysis were taken at 6 and 12 months of age from male and female mice treated by drugs or exposed to caloric restriction (CR) diet from 4 months of age along with control mice, which were untreated littermate mice matched by age and sex.
In all cases, interventions continued until the animals were sacrificed. […] RNA was extracted from liver tissues with PureLink RNA Mini Kit as described in the protocol and passed to sequencing.
For samples corresponding to lifespan-extending interventions, paired-end sequencing with 100 bp read length was performed on illumine HiSeq2000 platform. […] Quality filtering and adapter removal were performed using Trimmomatic version 0.32.
When performing analysis of the feminizing effect, gene expression differences were identified between control males and females from UM-HET3 strains for each age group. […] The statistical significance of correlation between sex-associated differences and response to certain intervention (“feminizing effect”) was calculated using Spearman correlation test and adjusted for multiple comparisons with Benjamini-Hochberg procedure. When calculating correlation between response to certain intervention in specific age group (6 or 12 months) and female-associated differences, the latter were calculated using gene expression data for control males and females from the other age group (12 or 6 months, respectively). […]
Differences in the feminizing effect of interventions in certain age groups between males and females was tested by Spearman correlation test, applied to the difference in log2FC of gender-associated genes in response to the specified conditions between males and females, and female-associated differences based on the other age group, with the following Benjamini-Hochberg adjustment. Manhattan distance between male and female gene expression profiles was calculated for individual samples in a pairwise manner using intersection of sex-specific gene sets across age groups. […]

[7] = system: C57BI/6 mice; test: Lifespan of old (2-year-old) C57BL/6 mice given a diet containing the compound; assay type: in vivo, mouse; conditions: C57BL/6 male mice, given late in life, ad libitum in diet (AZD-8055 20 mg/kg of food, LY294002 600 mg/kg, KU-0063794 10 mg/kg of diet)
Experimental: as §1
Interventions were predicted in a screen based on the gene expression longevity signatures that we developed. The predicted interventions were then verified for gene expression responses in human and mouse primary cell culture (hepatocytes) and in live mice (after mice were fed for 1 month with the diets containing these interventions). The interventions that passed these tests were further assessed for the effect on lifespan of 2-year-old C57BI/6 mice. Older mice (2-year-old) were chosen for this experiment in order to mimic the effect of giving interventions to human subjects in their second half of life.
as §1, with “females. They” for “females. Mice”

[8] = system: C57BL/6 mice; test: Gait speed of old C57BL/6 mice on compound diet; assay type: in vivo, mouse; conditions: 31-month-old C57BL/6 male mice
Experimental: as §1
as §1, with “females. They” for “females. Mice”

[9] = datasets from different sources, 250 genes

Compound: COc1ccc(-c2ccc3c(N4CCOC[C@@H]4C)nc(N4CCOC[C@@H]4C)nc3n2)cc1CO [AZD-8055, 5-[2,4-bis[(3S)-3-methyl-4-morpholinyl]pyrido[2,3-d]pyrimidin-7-yl]-2-methoxy-benzenemethanol]
- Effect on glucose tolerance [1]: does not lead to glucose intolerance; also recorded: did not compromise
- Effect on frailty index ([2]; old C57BL/6 mice, males and females): no effect

Compound: Cc1nc(-c2cccnc2)sc1C(=O)Nc1ccccc1-c1cn2c(CN3CCOCC3)csc2n1 [SRT2104]
- Increase in median and maximum lifespan ([3]; male mice (Mercken et al., 2014b)): ~10%
- Association with longevity signatures associated with the quantitative effect of lifespan extension ([4]; males, public dataset): no consistent positive association
- Association of hepatic gene expression changes with longevity signatures [4]: significant positive associations of these models in males with CR and signatures shared by lifespan-extending interventions

Compound: Oc1ccc(C=Cc2cc(O)cc(O)c2)cc1 [resveratrol]
- Effect on lifespan in the ITP mouse cohort [3]: did not increase lifespan
- Correlation with CR at the level of gene expression (median Spearman correlation coefficient) [5, 9]: statistically significant positive correlations
- Correlation with the main cluster of interventions (defined by CR and GH deficiency) [5]: week positive correlation

Compound: CN(C)C(=N)N=C(N)N [metformin]
- Effect on lifespan in the ITP mouse cohort [3]: did not increase lifespan
- Correlation with CR at the level of gene expression (median Spearman correlation coefficient) [5, 9]: statistically significant positive correlations
- Correlation with the main cluster of interventions (defined by CR and GH deficiency) [5]: week positive correlation

Compound: interleukin-6: pro-inflammatory cytokine secreted by T cells and macrophages
- Association of hepatic gene expression changes with longevity signatures [4]: significant negative association with all longevity signatures

Compound: C[C@H]1O[C@H](O[C@H]2[C@H](O)[C@@H](O)[C@@H](O[C@H]3[C@H](O)[C@@H](O)C(O)O[C@@H]3CO)O[C@@H]2CO)[C@H](O)[C@@H](O)[C@@H]1N[C@H]1C=C(CO)[C@@H](O)[C@H](O)[C@H]1O (stereo partly drawn) [acarbose]
- Feminizing effect (Spearman correlation with sex-associated gene expression differences) ([6]; 12-month-old): 0.19

Compound: CO[C@H]1C[C@@H]2CC[C@@H](C)[C@@](O)(O2)C(=O)C(=O)N2CCCC[C@H]2C(=O)O[C@H]([C@H](C)C[C@@H]2CC[C@@H](O)[C@H](OC)C2)CC(=O)[C@H](C)/C=C(\C)[C@@H](O)[C@@H](OC)C(=O)[C@H](C)C[C@H](C)/C=C/C=C/C=C/1C [rapamycin]
- Feminizing effect (Spearman correlation with sex-associated gene expression differences) ([6]; 6-month-old): −0.14
- Feminizing effect (Spearman correlation with sex-associated gene expression differences) ([6]; 12-month-old): −0.49
- Correlation of the intervention with itself across datasets (median Spearman correlation coefficient) [5, 9]: 0.088
- Correlation with CR at the level of gene expression (median Spearman correlation coefficient) [5, 9]: −0.049

Compound: O=c1cc(N2CCOCC2)oc2c(-c3ccccc3)cccc12 [LY294002, 2-Morpholin-4-yl-8-phenylchromen-4-one]
- Effect on lifespan [7]: extends lifespan
- Effect on glucose tolerance [1]: No effect; also recorded: did not have a significant effect
- Effect on frailty index ([2]; 31-month-old C57BL/6 male mice): improves
- Effect on gait speed [8]: improves
